In patent US6693134B2, “Bicyclic aromatic chemokine receptor ligands” (Chemokine Therapeutics Corporation, priority 2001, dated 2004):

How the values were obtained:
CXCR-4 [1] = target: T1, CXCR-4 (Homo sapiens, UniProt P61073); test: Inhibition of SDF-1 induced intracellular [Ca2+]i mobilization in THP-1 cells; assay type: cell-based; parameters: endogenous in cells; host or cells: THP-1 cells; settings: Fura-2,AM loaded THP-1 cells; incubated 60 min prior to induction by 10 nM SDF-1
Method: A rapid, transient rise in the free cytosolic Ca^2+ concentration ([Ca^2+]i) is one of the events associated with the Chemokine mediated induction of the associated receptors and is assumed to be involved in many of the subsequent cellular reactions. Both Ca^2+ release from intracellular stores and Ca^2+ influx from the extracellular space contribute to the rise in [Ca^2+]i. […] Fura-2,AM loaded THP-1 cells were incubated with CTCM226 for 60 min prior to induction of [Ca^2+]i mobilization by 10 nM SDF-1. Results illustrate the effect of CTCM226 (1) on SDF-1 induced Ca^2+ mobilization.
In accordance with this aspect of the invention, the naphthoic acid derivative, such as compound 1 or corresponding salts may be used for the treatment of a wide range of inflammatory diseases such as gout, arthritis, osteoarthritis, rheumatoid arthritis, and ARDS.

CXCR-4 [2] = target: T1, CXCR-4; test: Inhibition of binding of I125 labeled SDF-1 to CXCR-4 receptor; settings: I125 labeled SDF-1 as competitor ligand
Method: This example discloses the ability of compounds of the invention, such as naphthoic acid derivatives, such as CTCM226 (1), to inhibit binding of SDF-1 to CXCR-4 receptor. The binding studies were conducted using I^125 labeled SDF-1 as competitor ligand.

T1 sequence (P61073 whole entry): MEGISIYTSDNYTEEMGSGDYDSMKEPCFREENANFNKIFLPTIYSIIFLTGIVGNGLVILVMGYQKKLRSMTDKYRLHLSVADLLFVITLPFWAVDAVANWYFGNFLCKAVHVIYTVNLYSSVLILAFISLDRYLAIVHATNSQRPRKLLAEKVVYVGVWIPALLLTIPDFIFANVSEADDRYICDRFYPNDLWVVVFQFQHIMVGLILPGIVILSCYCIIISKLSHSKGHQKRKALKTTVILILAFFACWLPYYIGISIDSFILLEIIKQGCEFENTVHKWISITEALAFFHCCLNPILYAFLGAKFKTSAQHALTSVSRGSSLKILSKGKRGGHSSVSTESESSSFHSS

IC50 (CXCR-4 [1]): 0.6 µM
IC50 (CXCR-4 [2]): 150 µM
Compound: O=C(O)c1cc2ccccc2cc1O [Compound 1, 3-Hydroxy-2-naphthoic acid]
